Assay results reported in ChEMBL document CHEMBL2074408, “Altered pharmacokinetics of vinblastine in Mdr1a P-glycoprotein-deficient Mice” (J Natl Cancer Inst, 1996).

Target: ATP-dependent translocase ABCB1 (Mus musculus, UniProt P21447)
Test: TP_TRANSPORTER: increase in brain concentration in mdr1a(-/-) mouse
Format: functional, organism-based
Conditions: in vivo

Chain of ATP-dependent translocase ABCB1 (P21447 whole entry): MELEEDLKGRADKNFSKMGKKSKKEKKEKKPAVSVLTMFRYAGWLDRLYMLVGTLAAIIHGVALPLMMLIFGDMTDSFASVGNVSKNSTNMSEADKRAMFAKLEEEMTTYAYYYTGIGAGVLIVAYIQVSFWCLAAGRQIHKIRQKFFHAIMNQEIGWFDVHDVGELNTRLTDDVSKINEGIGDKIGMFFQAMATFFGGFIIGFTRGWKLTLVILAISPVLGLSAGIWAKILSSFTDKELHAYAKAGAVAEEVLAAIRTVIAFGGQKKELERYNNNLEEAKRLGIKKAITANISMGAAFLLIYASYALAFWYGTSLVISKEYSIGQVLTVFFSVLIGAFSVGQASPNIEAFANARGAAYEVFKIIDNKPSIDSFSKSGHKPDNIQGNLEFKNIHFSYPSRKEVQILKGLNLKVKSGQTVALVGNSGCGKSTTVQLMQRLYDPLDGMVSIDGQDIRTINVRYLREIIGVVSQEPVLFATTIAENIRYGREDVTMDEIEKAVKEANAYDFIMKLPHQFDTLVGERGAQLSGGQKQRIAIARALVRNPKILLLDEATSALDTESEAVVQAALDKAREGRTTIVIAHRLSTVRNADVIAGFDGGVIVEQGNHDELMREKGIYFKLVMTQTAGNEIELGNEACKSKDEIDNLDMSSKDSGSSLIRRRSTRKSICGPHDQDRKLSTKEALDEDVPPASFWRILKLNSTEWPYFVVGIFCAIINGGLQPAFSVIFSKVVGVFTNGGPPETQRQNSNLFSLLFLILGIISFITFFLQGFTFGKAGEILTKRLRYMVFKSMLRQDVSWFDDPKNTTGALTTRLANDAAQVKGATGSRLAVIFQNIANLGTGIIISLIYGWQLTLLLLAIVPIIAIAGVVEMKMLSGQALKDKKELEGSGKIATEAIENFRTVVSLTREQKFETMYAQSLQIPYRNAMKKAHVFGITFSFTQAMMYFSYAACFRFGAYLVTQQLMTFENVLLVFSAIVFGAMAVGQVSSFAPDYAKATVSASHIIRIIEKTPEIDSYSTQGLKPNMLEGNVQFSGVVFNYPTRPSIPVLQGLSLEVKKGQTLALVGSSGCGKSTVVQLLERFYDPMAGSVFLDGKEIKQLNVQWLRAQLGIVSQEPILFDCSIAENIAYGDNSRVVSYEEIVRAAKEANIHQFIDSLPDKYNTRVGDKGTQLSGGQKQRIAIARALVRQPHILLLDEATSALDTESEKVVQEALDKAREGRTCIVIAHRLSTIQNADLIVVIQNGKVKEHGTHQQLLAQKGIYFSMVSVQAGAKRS

CC[C@]1(O)C[C@H]2CN(CCc3c([nH]c4ccccc34)[C@@](C(=O)OC)(c3cc4c(cc3OC)N(C=O)[C@H]3[C@@](O)(C(=O)OC)[C@H](OC(C)=O)[C@]5(CC)C=CCN6CC[C@]43[C@@H]65)C2)C1 [VINCRISTINE]
Activity: substrate [+]
